Laboratory results: ChEMBL document CHEMBL5212743, “Selectivity Literature for EUbOPEN Chemogenomics Library wave 3” (2023)
One block for each compound: values may come before it.

Legend:
[1] = molecular target: T1, Adenosine receptor A1 (Homo sapiens) (UniProt P30542); assay: Selectivity interaction (CEREP panel (LeadProfilingScreen Eurofins, panel of receptors, ion channels, and other enzymes)) EUB0000191c ADORA1; conditions: at 10 µM
T1 sequence (whole entry): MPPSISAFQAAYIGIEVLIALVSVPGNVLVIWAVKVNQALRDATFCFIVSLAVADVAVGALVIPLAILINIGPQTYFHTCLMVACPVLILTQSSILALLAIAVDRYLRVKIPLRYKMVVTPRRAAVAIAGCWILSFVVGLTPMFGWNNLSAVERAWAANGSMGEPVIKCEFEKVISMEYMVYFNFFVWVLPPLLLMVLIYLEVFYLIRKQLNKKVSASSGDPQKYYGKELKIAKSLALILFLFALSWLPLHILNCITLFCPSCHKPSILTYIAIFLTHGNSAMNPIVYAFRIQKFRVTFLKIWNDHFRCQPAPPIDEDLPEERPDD

[2] = molecular target: T2, Chromatin remodeling regulator CECR2 (Homo sapiens, UniProt Q9BXF3); assay: Selectivity interaction (Bromodomain panel (DSF assay)) EUB0000191c CECR2
[3] = molecular target: T3, Bromodomain-containing protein 7 (Homo sapiens) (UniProt Q9NPI1); assay: Selectivity interaction (Bromodomain panel (DSF assay)) EUB0000191c BRD7
T3 sequence (whole entry): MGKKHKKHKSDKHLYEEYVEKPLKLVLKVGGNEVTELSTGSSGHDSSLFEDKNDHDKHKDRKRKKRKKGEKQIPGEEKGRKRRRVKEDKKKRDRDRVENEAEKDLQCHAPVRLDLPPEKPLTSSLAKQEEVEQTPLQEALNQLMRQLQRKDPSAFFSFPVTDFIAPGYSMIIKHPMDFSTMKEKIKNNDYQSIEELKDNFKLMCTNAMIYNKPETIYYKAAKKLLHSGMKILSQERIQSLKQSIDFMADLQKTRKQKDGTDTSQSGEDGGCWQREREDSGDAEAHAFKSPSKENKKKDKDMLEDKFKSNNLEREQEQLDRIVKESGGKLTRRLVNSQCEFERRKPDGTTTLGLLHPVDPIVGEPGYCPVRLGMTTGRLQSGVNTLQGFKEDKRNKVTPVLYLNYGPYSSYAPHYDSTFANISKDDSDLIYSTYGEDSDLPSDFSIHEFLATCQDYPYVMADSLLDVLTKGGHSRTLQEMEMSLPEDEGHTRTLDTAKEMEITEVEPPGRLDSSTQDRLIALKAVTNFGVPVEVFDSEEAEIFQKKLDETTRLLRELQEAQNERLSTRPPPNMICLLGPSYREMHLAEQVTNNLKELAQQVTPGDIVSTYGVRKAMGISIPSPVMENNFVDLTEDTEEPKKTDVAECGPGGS

[4] = molecular target: T4, Bromodomain-containing protein 4 (Homo sapiens, UniProt O60885); assay: (§1) Selectivity interaction (TR-FRET assay) EUB0000191c BRD4
[5] = molecular target: Histone acetyltransferase p300 (Homo sapiens) (UniProt Q09472); assay: Selectivity interaction (Bromodomain panel (DSF assay)) EUB0000191c EP300
[6] = molecular target: T4, Bromodomain-containing protein 4; assay: as §1; remark: listed apart in the source
[7] = molecular target: T2, Chromatin remodeling regulator CECR2; assay: Selectivity interaction (ITC) EUB0000191c CECR2
[8] = molecular target: cGMP-dependent 3',5'-cyclic phosphodiesterase (Homo sapiens) (UniProt O00408); assay: Selectivity interaction (CEREP panel (LeadProfilingScreen Eurofins, panel of receptors, ion channels, and other enzymes)) EUB0000191c PDE2A; conditions: at 10 µM
[9] = molecular target: cGMP-specific 3',5'-cyclic phosphodiesterase (Homo sapiens) (UniProt O76074); assay: Selectivity interaction (CEREP panel (LeadProfilingScreen Eurofins, panel of receptors, ion channels, and other enzymes)) EUB0000191c PDE5A; conditions: at 10 µM
[10] = molecular target: Transcription initiation factor TFIID subunit 1-like (Homo sapiens) (UniProt Q8IZX4); assay: Selectivity interaction (BROMOscan (DiscoverX)) EUB0000191c TAF1L; conditions: at 100 nM
Sequence of Transcription initiation factor TFIID subunit 1-like (Homo sapiens) (Q8IZX4 whole entry): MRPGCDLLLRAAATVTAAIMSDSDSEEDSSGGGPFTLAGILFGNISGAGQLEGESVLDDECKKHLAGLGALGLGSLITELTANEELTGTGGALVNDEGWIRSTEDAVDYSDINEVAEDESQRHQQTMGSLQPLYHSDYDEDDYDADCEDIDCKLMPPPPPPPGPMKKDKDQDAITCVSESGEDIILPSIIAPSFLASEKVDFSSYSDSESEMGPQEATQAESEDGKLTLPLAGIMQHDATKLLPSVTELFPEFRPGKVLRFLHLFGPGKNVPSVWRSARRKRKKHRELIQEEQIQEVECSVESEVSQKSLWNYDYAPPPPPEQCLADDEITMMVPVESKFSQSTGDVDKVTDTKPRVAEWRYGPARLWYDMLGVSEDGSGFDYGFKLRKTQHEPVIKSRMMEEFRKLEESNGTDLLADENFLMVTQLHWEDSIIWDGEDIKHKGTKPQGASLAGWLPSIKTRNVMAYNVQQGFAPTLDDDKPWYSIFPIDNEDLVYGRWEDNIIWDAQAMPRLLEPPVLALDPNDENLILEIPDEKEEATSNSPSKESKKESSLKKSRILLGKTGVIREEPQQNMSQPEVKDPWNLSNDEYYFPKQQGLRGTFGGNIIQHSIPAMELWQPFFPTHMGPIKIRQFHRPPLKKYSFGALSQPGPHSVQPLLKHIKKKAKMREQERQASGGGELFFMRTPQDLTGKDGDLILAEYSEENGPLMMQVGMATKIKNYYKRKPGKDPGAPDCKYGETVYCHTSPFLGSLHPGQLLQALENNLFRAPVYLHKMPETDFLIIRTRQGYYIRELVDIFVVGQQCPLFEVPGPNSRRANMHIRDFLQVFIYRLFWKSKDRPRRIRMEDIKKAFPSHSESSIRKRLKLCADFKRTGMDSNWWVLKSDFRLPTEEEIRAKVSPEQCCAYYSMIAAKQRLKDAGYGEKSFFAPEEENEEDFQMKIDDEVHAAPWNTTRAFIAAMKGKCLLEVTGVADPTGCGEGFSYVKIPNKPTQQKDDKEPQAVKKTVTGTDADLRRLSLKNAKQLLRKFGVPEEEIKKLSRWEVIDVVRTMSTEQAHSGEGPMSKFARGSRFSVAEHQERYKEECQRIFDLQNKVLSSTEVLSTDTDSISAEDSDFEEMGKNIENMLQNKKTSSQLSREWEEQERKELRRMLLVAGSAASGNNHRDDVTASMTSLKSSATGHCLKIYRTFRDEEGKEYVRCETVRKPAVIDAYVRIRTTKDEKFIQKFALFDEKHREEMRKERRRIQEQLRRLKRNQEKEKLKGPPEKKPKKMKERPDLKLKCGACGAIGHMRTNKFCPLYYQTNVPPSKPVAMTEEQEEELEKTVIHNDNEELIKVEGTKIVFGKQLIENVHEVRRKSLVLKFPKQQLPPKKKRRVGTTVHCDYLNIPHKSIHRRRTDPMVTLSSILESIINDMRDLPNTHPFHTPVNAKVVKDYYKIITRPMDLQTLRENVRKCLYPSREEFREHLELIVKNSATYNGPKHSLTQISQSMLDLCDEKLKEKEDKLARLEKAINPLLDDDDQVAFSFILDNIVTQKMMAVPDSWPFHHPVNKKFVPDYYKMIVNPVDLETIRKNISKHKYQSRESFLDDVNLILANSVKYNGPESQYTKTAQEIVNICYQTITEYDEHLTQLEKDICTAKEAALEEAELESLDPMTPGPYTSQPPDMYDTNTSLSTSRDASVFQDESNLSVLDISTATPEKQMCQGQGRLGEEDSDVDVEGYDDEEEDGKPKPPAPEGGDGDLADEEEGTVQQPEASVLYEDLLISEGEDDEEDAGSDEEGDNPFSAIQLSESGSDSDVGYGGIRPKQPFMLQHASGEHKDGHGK

[11] = molecular target: T5, Gamma-aminobutyric acid receptor subunit alpha-1 (Homo sapiens) (UniProt P14867); assay: Selectivity interaction (CEREP panel (LeadProfilingScreen Eurofins, panel of receptors, ion channels, and other enzymes)) EUB0000191c GABRA1; conditions: at 10 µM
T5 sequence (whole entry): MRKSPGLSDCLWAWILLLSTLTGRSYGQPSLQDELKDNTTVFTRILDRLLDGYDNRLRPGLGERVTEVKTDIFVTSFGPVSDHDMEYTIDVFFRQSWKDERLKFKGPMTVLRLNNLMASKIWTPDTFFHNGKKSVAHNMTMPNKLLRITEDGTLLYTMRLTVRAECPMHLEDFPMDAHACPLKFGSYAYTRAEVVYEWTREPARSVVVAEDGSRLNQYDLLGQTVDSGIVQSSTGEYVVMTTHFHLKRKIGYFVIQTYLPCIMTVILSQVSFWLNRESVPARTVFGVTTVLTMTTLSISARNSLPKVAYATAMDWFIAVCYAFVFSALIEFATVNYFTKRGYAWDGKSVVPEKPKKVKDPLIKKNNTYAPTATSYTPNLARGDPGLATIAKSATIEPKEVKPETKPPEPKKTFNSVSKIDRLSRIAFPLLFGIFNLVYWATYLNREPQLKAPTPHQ

[12] = molecular target: CREB-binding protein (Homo sapiens, UniProt Q92793); assay: Selectivity interaction (BROMOscan (DiscoverX)) EUB0000191c CREBBP; conditions: at 100 nM
[13] = system: Serine/threonine-protein kinase B-raf (Homo sapiens), P15056 [V600E]; assay: Selectivity interaction (KinomeScan (DiscoverX)) EUB0000703a BRAF; conditions: at 1 µM
[14] = molecular target: D(2) dopamine receptor (Homo sapiens, UniProt P14416); assay: Selectivity interaction (GPCR panel (PDSP screen)) EUB0000703a DRD2
Sequence of D(2) dopamine receptor (P14416 whole entry, the tested form may be a part): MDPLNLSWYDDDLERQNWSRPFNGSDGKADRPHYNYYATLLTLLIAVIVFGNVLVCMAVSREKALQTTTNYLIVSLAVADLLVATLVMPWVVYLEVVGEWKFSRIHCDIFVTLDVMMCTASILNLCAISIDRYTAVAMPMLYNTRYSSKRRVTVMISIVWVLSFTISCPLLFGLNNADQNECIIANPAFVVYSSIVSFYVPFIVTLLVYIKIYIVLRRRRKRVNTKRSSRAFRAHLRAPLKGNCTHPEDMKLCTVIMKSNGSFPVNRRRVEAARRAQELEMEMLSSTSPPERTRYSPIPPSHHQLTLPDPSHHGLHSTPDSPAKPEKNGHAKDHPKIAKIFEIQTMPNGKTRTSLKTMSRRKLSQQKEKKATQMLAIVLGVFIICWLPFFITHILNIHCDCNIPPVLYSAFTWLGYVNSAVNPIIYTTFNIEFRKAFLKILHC

[15] = molecular target: Epithelial discoidin domain-containing receptor 1 (Homo sapiens, UniProt Q08345); assay: Selectivity interaction (KinomeScan (DiscoverX)) EUB0000703a DDR1; conditions: at 1 µM
[16] = molecular target: Discoidin domain-containing receptor 2 (Homo sapiens) (UniProt Q16832); assay: Selectivity interaction (KinomeScan (DiscoverX)) EUB0000703a DDR2; conditions: at 1 µM
Sequence of Discoidin domain-containing receptor 2 (Homo sapiens) (Q16832 whole entry, the tested form may be a part): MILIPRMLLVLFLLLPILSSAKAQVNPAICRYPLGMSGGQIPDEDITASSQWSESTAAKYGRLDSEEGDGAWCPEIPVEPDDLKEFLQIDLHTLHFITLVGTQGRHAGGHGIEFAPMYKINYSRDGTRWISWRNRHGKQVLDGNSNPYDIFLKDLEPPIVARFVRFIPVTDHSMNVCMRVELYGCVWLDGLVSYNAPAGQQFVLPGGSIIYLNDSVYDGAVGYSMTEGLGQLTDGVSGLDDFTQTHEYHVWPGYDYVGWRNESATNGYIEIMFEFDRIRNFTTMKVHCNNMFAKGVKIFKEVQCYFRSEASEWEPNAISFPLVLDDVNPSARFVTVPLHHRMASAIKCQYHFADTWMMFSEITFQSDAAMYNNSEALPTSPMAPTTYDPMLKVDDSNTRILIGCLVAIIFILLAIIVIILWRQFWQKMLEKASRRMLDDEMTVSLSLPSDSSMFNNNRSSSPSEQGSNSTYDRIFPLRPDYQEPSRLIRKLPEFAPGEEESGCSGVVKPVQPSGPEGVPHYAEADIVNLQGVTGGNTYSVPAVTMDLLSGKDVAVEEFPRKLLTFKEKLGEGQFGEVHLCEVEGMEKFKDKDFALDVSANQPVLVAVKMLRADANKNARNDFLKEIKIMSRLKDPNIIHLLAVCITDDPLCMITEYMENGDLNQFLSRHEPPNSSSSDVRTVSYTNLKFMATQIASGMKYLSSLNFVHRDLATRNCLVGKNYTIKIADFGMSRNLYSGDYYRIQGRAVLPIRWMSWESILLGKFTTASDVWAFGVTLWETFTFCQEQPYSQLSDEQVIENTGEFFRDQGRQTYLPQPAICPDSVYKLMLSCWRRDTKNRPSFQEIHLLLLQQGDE

[17] = molecular target: T6, Gamma-aminobutyric acid receptor subunit alpha-1 (Homo sapiens, UniProt P14867); assay: Selectivity interaction (GPCR panel (PDSP screen)) EUB0000703a GABRA1
T6 sequence (P14867 whole entry): T5 sequence (whole entry)

[18] = molecular target: Kappa-type opioid receptor (Homo sapiens, UniProt P41145); assay: Selectivity interaction (GPCR panel (PDSP screen)) EUB0000703a OPRK1
[19] = molecular target: Tyrosine-protein kinase Lyn (Homo sapiens, UniProt P07948); assay: Selectivity interaction (NanoBRET assay (HEK293T cells)) EUB0000703a LYN
[20] = molecular target: Sodium-dependent noradrenaline transporter (Homo sapiens, UniProt P23975); assay: Selectivity interaction (GPCR panel (PDSP screen)) EUB0000703a SLC6A2
[21] = molecular target: Phosphatidylinositol 4,5-bisphosphate 3-kinase catalytic subunit alpha isoform (Homo sapiens, UniProt P42336); assay: Selectivity interaction (KinomeScan (DiscoverX)) EUB0000703a PIK3CA; conditions: at 1 µM
Sequence of Phosphatidylinositol 4,5-bisphosphate 3-kinase catalytic subunit alpha isoform (P42336 whole entry, canonical isoform): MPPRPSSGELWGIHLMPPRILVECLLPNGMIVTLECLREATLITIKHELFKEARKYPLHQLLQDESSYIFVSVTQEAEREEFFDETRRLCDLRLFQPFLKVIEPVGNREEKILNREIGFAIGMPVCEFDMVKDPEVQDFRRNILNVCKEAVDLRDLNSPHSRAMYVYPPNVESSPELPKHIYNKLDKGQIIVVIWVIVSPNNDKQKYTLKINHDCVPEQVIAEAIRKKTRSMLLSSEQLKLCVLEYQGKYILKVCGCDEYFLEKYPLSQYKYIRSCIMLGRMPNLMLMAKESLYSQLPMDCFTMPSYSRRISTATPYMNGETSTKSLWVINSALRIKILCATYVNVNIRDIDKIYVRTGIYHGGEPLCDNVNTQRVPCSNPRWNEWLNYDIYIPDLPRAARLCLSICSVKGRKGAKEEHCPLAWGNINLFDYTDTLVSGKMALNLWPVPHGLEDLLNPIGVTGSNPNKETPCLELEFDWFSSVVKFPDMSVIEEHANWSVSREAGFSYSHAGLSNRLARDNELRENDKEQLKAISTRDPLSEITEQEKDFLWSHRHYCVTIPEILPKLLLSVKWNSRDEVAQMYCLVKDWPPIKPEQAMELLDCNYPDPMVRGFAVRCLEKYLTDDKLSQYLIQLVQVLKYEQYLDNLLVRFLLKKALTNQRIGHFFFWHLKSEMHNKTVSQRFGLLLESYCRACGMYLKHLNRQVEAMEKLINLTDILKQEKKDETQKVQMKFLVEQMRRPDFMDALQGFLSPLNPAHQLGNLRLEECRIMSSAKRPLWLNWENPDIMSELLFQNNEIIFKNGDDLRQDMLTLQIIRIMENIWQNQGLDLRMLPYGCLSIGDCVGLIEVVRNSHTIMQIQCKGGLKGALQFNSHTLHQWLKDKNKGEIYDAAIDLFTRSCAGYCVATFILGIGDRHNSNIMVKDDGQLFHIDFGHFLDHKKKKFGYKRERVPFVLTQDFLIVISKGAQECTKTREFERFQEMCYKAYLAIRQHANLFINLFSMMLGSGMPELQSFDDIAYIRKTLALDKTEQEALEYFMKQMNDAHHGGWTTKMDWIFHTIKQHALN

[22] = molecular target: T7, Serine/threonine-protein kinase LATS2 (Homo sapiens) (UniProt Q9NRM7); assay: Selectivity interaction (KinomeScan (DiscoverX)) EUB0000716a LATS2; conditions: at 100 nM
T7 sequence (whole entry): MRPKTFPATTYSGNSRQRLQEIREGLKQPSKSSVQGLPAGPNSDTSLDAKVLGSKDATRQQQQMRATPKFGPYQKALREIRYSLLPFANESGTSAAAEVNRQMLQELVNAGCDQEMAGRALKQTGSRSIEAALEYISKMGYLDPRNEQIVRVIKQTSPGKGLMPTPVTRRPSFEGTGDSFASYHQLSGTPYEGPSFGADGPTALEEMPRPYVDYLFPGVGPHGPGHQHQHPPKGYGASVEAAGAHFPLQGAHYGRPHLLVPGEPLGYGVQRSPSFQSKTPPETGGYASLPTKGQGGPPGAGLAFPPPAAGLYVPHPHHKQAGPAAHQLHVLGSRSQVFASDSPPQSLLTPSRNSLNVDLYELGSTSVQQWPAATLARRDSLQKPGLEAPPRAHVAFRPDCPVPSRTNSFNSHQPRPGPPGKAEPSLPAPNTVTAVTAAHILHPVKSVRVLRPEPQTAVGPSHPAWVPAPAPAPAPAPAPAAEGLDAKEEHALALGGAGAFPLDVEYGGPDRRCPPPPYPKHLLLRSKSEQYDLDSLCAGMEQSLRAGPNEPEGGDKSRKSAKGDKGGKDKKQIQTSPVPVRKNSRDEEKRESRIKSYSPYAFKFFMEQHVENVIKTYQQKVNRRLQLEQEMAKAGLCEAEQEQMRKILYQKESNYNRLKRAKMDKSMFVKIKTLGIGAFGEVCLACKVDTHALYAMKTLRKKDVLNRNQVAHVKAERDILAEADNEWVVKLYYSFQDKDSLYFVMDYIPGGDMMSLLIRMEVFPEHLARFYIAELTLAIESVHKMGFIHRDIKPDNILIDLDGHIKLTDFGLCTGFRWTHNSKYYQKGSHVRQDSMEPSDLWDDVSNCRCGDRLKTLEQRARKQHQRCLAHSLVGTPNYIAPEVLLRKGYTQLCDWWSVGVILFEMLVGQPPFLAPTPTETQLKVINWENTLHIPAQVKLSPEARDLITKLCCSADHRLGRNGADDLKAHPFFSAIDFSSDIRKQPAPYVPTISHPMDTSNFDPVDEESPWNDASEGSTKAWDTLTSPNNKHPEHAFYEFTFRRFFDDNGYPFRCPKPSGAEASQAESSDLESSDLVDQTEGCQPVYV

[23] = molecular target: cAMP-dependent protein kinase catalytic subunit beta (Homo sapiens) (UniProt P22694); assay: Selectivity interaction (KinomeScan (DiscoverX)) EUB0000716a PRKACB; conditions: at 100 nM
[24] = molecular target: T8, Sodium-dependent dopamine transporter (Homo sapiens, UniProt Q01959); assay: (§2) Selectivity interaction (Eurofins-Panlabs radioligand binding assay) EUB0000716a SLC6A3
T8 sequence (Q01959 whole entry): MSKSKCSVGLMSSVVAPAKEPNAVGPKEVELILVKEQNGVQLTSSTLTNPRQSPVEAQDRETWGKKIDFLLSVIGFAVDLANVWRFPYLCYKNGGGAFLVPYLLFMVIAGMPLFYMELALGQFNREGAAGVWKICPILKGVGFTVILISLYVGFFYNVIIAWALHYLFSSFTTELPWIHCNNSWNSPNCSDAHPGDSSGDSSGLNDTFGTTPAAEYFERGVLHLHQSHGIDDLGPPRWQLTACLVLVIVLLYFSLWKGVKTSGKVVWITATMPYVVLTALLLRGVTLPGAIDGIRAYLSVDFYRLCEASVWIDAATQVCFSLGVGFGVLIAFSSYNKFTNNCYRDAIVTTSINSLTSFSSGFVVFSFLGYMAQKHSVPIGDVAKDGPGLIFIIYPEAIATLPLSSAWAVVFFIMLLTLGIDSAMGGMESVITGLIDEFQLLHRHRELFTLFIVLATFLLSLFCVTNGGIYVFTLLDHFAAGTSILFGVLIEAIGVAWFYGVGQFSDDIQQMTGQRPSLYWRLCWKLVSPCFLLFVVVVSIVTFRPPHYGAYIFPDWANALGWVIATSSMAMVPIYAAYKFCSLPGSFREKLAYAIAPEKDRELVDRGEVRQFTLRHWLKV

[25] = molecular target: T9, Serine/threonine-protein kinase LATS1 (Homo sapiens) (UniProt O95835); assay: Selectivity interaction (KinomeScan (DiscoverX)) EUB0000716a LATS1; conditions: at 100 nM
T9 sequence (whole entry): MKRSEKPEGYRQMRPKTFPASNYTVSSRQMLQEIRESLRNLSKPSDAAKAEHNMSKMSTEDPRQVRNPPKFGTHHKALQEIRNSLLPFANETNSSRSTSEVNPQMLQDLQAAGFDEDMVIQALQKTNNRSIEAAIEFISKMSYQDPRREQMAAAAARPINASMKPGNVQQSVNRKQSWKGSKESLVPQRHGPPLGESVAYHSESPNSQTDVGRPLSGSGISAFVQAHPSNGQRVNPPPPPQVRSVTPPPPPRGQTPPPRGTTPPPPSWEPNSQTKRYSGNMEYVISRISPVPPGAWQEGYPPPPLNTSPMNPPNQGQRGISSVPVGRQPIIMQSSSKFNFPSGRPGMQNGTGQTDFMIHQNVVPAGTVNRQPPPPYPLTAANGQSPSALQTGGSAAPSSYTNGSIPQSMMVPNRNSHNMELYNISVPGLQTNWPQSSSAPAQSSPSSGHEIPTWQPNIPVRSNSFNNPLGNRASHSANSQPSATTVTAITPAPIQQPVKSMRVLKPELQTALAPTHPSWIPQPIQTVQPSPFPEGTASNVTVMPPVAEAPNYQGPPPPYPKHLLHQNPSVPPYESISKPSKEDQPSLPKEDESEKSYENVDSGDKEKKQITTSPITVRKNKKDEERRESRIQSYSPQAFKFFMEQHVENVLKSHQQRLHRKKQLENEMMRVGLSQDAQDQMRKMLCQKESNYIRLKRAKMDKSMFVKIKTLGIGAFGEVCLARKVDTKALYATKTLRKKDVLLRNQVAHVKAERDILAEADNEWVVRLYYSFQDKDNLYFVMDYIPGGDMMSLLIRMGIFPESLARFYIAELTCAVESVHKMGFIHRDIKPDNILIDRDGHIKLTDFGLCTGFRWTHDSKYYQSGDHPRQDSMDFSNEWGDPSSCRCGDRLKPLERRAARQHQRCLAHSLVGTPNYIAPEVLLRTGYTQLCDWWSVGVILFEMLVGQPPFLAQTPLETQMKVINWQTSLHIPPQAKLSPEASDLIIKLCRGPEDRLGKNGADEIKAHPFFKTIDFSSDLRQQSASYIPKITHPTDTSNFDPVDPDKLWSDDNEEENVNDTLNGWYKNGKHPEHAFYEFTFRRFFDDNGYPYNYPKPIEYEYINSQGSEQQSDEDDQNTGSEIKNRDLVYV

[26] = molecular target: cAMP-dependent protein kinase catalytic subunit alpha (Homo sapiens, UniProt P17612); assay: Selectivity interaction (KinomeScan (DiscoverX)) EUB0000716a PRKACA; conditions: at 100 nM
[27] = molecular target: cGMP-dependent protein kinase 1 (Homo sapiens) (UniProt Q13976); assay: Selectivity interaction (KinomeScan (DiscoverX)) EUB0000716a PRKG1; conditions: at 100 nM
[28] = molecular target: T8, Sodium-dependent dopamine transporter; assay: as §2; remark: listed apart in the source

% of control [1]: 48% | dTm [2]: 3.5 K | dTm [3]: 2.3 K | IC50 [4]: > 20 µM | dTm [5]: 3.5 K | IC50 [6]: > 15 µM | Kd [7]: 1.39 µM | % of control [8]: 49% | % of control [9]: 2% | % of control [10]: 0.7% | % of control [11]: 23% | % of control [12]: 30%
Structure (SMILES): Cc1cc2c(cc1N1C(=O)c3cccc4c(CCCO)ccc(c34)C1=O)n(C)c(=O)n2C

% of control [13]: 24% | Ki [14]: > 10 µM | % of control [15]: 0% | % of control [16]: 18% | Ki [17]: 10.9 µM | Ki [18]: > 10 µM | IC50 [19]: 7 µM | Ki [20]: > 10 µM | % of control [21]: 23%
Structure (SMILES): Cc1cc(NC(=O)c2cccc(S(F)(F)(F)(F)F)c2)cc(-n2ccn3nc(-c4cccnc4)cc23)c1 [BAY-309]

% of control [22]: 0.7% | % of control [23]: 36% | Ki [24]: 0.027 µM | % of control [25]: 42% | % of control [26]: 28% | % of control [27]: 49% | Ki [28]: 0.039 µM
Structure (SMILES): Cc1c[nH]c2nccc(Oc3c(F)cc(Nc4cc(Cl)nc(N)n4)cc3F)c12 [BAY-549]
